Experimental findings from US8445477B2, “Azetidinyl diamides as monoacylglycerol lipase inhibitors” (Janssen Pharmaceutica, NV, priority 2009, dated 2013) are described below.

SMILES strings stand for the structures.

Assay [1] deals with CFA-induced thermal hypersensitivity of the rat hind paw. Kind of assay: CFA-Induced Paw Radiant Heat Hypersensitivity. The note with it: 30 mg/kg p.o., HPβCD, group mean values, maximum at any time point up to 180 or 300 min. Format: in vivo. The method, then:
Each rat was placed in a test chamber on a warm glass surface and allowed to acclimate for approximately 10 min. A radiant thermal stimulus (beam of light) was then focused through the glass onto the plantar surface of each hind paw in turn. The thermal stimulus was automatically shut off by a photoelectric relay when the paw was moved or when the cut-off time was reached (20 sec for radiant heat at ˜5 amps). An initial (baseline) response latency to the thermal stimulus was recorded for each animal prior to the injection of complete Freund's adjuvant (CFA). 24 h following intraplantar CFA injection, the response latency of the animal to the thermal stimulus was then re-evaluated and compared to the animal's baseline response time. […] Post-compound treatment withdrawal latencies were assessed at fixed time intervals, typically 30, 60, 120, 180, and 300 min.
The percent reversal (% R) of hypersensitivity was calculated in one of two different ways: 1) using group mean values or 2) using individual animal values. […]
Method 1. For all compounds, the % R of hypersensitivity was calculated using the mean value for groups of animals at each time point according to the following formula: % reversal=[(group treatment response−group CFA response)/(group baseline response−group CFA response)]×100 Results are given for the maximum % reversal observed for each compound at any time point tested. […]

Assay [2] deals with T1, MGL in rat brain homogenate (Rattus norvegicus, UniProt Q8R431).
T1 construct: one g rat brain was homogenized; from tissue; host or cells: rat brain homogenate
T1 sequence (Q8R431 1-303): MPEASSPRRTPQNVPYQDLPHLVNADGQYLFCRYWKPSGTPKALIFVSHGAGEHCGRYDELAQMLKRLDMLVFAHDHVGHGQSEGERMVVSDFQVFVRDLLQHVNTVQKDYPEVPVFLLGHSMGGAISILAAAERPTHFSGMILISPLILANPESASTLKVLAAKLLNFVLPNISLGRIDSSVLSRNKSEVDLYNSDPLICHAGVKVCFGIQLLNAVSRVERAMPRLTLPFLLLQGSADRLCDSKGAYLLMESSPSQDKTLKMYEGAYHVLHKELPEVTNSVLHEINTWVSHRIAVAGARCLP
The experiment in a line: 2-AG Accumulation Assay (rat brain homogenate). Format: biochemical. The note with it: compound 1 μM, percent vehicle = 2-AG accumulation with compound / vehicle ×100, read-out: Rat Brain 2AG % VehCntrl (%) @ 1 μM.

Consider `O=C(c1ccc(-c2cccc(C(F)(F)F)c2)c(Cl)c1)N1CC(N2CCN(C(=O)c3cscn3)CC2)C1` [Cpd 1102], for which the “Method 1: peak % reversal” value in assay [1] amounted to 38%. Turning to `O=C(c1ccc2c(ccn2-c2ncc(C(F)(F)F)cc2Cl)c1)N1CC(N2CCN(C(=O)c3nccs3)CC2)C1` [Cpd 1116], the activity at 1 µM in assay [2] was 828%.
